Results taken from PubChem BioAssay (NCI).
Values joined by “and” are separate entries in the source; they are usually repeats but may differ in a detail not shown here. Equal values may be shown once.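 Protocol summary: plate cells (96-well), add compound at 5 concentrations, incubate 48 h, interpolate endpoints linearly. GI50 is the concentration that inhibits growth by half. TGI marks complete inhibition of growth.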

Key:
Assay in all cases: NCI anticancer screen, dose series, 48 h
U251 CNS = tested on: U251 CNS
A549 NSCLC = tested on: A549 NSCLC
HOP-62 NSCLC = tested on: HOP-62 NSCLC
IGROV1 ovarian = tested on: IGROV1 ovarian
HCC-2998 colon = tested on: HCC-2998 colon
UACC-257 melanoma = tested on: UACC-257 melanoma
NCI-H23 lung = tested on: NCI-H23 lung
MALME-3M melanoma = tested on: MALME-3M melanoma
NCI-H522 lung = tested on: NCI-H522 lung
NCI/ADR-RES ovarian = tested on: NCI/ADR-RES ovarian

| Compound | TGI (U251 CNS) | TGI (A549 NSCLC) [µM] | TGI (HOP-62 NSCLC) [µM] | TGI (IGROV1 ovarian) [µM] | TGI (HCC-2998 colon) [µM] | TGI (UACC-257 melanoma) [µM] | TGI (NCI-H23 lung) [µM] | TGI (MALME-3M melanoma) [µM] | TGI (NCI-H522 lung) [µM] | GI50 (U251 CNS) [µM] | GI50 (A549 NSCLC) [µM] | GI50 (HOP-62 NSCLC) [µM] | GI50 (IGROV1 ovarian) [µM] | GI50 (UACC-257 melanoma) [µM] | GI50 (NCI-H522 lung) [µM] | GI50 (NCI/ADR-RES ovarian) [µM] | TGI (NCI/ADR-RES ovarian) [µM] | GI50 (MALME-3M melanoma) [µM] | GI50 (HCC-2998 colon) [µM] | GI50 (NCI-H23 lung) [µM] |
| --- | --- | --- | --- | --- | --- | --- | --- | --- | --- | --- | --- | --- | --- | --- | --- | --- | --- | --- | --- | --- |
| COc1ccc2c(c1OCC(=O)O)C(=O)C(CCC(=O)O)CC2 (stereo not drawn) | > 100 µM | > 100 | > 100 | > 100 | > 100 | > 100 | > 100 |  |  |  |  |  |  |  |  |  |  |  |  |  |
| Cc1cc2c(=O)c3ccccc3[nH]c2c(C(N)=O)c1C | > 100 µM | > 100 |  | > 100 |  | > 100 | > 100 | > 100 | > 100 |  |  |  |  |  |  |  |  |  |  |  |
| O=C(Nc1cccc(C(F)(F)F)c1)c1ccc(NC2=C(Cl)C(=O)N(Cc3ccc(Cl)cc3Cl)C2=O)cc1 | 19 µM | 92.4 | 32.2 | 4.56 |  | 42.2 |  |  | 10.2 | 5.82 | 21.6 | 18 | 2.01 | 15.9 | 3.34 |  |  |  |  |  |
| O=C1CCC2(c3ccc(Cl)cc3)Nc3cc(Cl)ccc3N12 (stereo not drawn) | 24.3 µM | 26.5 | 29.2 | 28.7 |  | 28.7 | 23.2 | 24.5 | 22.6 |  |  |  |  |  |  |  |  |  |  |  |
| CN(C)CC[C@H](CSc1ccccc1)Nc1ccc(S(=O)(=O)NC(=O)c2ccc(N3CCN(Cc4ccccc4-c4ccc(Cl)cc4)CC3)cc2)cc1[N+](=O)[O-] | 17.4 µM | > 100 | > 60.2 | > 51.6 | 2.01 | 6.16 | > 100 | 36.3 |  | 3.9 | 3.73 | 9.66 | 3.05 | 1.79 |  | > 61.6 | > 100 | 3.11 | 0.457 | 9.07 |
| CCOc1ccc(/C=C2\N=C(c3ccc([N+](=O)[O-])cc3)OC2=O)cc1 | > 100 µM | > 100 | > 100 | > 100 | > 100 | > 100 | > 100 | > 100 | > 100 |  |  |  |  |  |  |  |  |  |  |  |
| CCCCCCCCCCCCCCCC(=O)OCCOCCOCCOCc1ccccc1 | > 100 µM | > 100 | > 100 | > 100 |  | > 100 | > 100 | > 100 |  |  |  |  |  |  |  |  |  |  |  |  |
| COC1C(OC(=S)Nc2ccccc2)c2ccccc2N1C(C)=O (stereo not drawn) | > 100 µM | > 100 | > 100 | > 100 | > 100 | > 100 | > 100 |  |  |  |  |  |  |  |  |  |  |  |  |  |
| CC(C)(C)c1cc(C(P(=O)(O)O)P(=O)(O)O)cc(C(C)(C)C)c1O | > 100 µM | > 100 | > 100 | > 100 | > 100 | > 100 | > 100 |  | > 100 |  |  |  |  |  |  |  |  |  |  |  |
| CCOC(=O)N[C@H]1CCc2cc(OC)c(OC)c(OC)c2-c2ccc(SC)c(=O)cc21 | 61.3 µM and > 100 µM | > 100 | > 100 | > 100 | > 69.6 | > 100 |  | > 100 |  |  |  |  |  | > 70.5 |  | 0.0319 | > 100 | < 0.0122 |  |  |
| CN1CCC(=O)/C(=C/c2ccccc2)C1 | 19.1 µM | 34.3 | 40.2 | 33.5 | 23.6 | 28.2 | 36.1 | 35.4 | 33.6 |  |  |  |  |  |  |  |  |  |  |  |
